# “Also recorded” adds a separate entry of the source. Where two headings read alike, the source gives them in different places. Numbered stars: 1 amine (or outer) side, 2 acyl side, 3 side chain; on linkers, the order of the positions; unused ones are H or OH. Square brackets hold non-standard residues; d marks the D form. Ends that are not written are not given here. Peptide text beside a SMILES is read from it. X2 = O=C([C@H](Cc1c(Sc2ccccc2[N+](=O)[O-])[nH]c2ccccc12)N[*:1])[*:2]
# Assays:
# PDGF-β receptor [1] = target: T1, PDGF-β receptor (Homo sapiens, UniProt P09619); experiment: Competition with 125I-PDGF-BB for binding to AG1518 fibroblasts (α receptor down regulated by PDGF-AA preincubation)
# T1 construct: cultures of human foreskin fibroblast cell line AG1518; endogenous in cells; host or cells: AG1518 human foreskin fibroblasts (Human Mutant Cell Repository)
# Protocol: (§1) In order to test for receptor binding, cultures of human foreskin fibroblast cell line AG1518 (obtained from the Human Mutant Cell Repository), were grown to confluence in Ham's F-12 medium containing 10% newborn calf serum. Those cells which were to be used in analysis of PDGF-β receptor binding were preincubated for 60 minutes at 37° C. in 0.5 ml/well of Ham's F-12 medium, supplemented with 1 mg/ml of bovine serum albumin (BSA), and 50 ng/ml of PDGF-AA. This combination down regulates PDGF-α receptor, as per Claesson-Welsh et al., J. Biol. Chem. 264: 1742-1747 (1989).
# (§2) Cells were prepared for receptor binding analyses by washing with ice cold binding buffer (phosphate buffered saline with 0.9 mM CaCl2, 0.49 mM MgSO4 and 1 mg/ml BSA). The cells were then incubated on ice for 90 minutes with different concentrations (0-100 ug/ml) of synthetic peptides (listed in Table 1, infra), in 0.5 ml of binding buffer per well. […] The labelled ligand was added and then incubated for 60 minutes at 0° C. after which the cells were washed five times with ice cold binding buffer. The washed cells were then lysed for 60 minutes at room temperature in a lysis buffer (1% Triton X-100, 10% glycerol, 20 mM Tris-HCl, pH 7.5). Solubilized radioactivity was determined in a gamma counter. Competing activities of synthetic peptides were compared to standard curves, using unlabelled ligand.
# In Table 2, "+++" means <30 μM; "++" from 30-60 μM; "+" 60-150 μM; and "-", >150 μM.
# PDGF receptors = experiment: PDGF-BB induced receptor dimerization and autophosphorylation in intact cells; format: cell-based, human; conditions: PDGF-BB 300 ng/ml, intact fibroblasts
# Protocol: (§3) Confluent human foreskin fibroblast cells were used (25 cm^2 dishes of cultures). The cells were washed twice with binding buffer, as described supra, with 1 mg/ml BSA added thereto. This was followed by 90 minutes of incubation with one of synthetic peptides 16, […], 20 and […] on ice. […] A dimerization assay was then carried out, basically following Eriksson et al., Growth Factors 6: 1-14 (1992). Essentially, receptors were cross linked for 20 minutes at room temperature in 1 mM BS^3 (Bis(sulfosuccinimidyl)suberate) in lysis buffer (0.5% Triton X-100, 0.5% deoxycholate, […], pH 7.4, 150 mM NaCl, 10 mM EDTA, 1 mM PMSF (phenylmethylsulfonyl fluoride), 1% Trasylol (aprotinin), 100 μM ortovandat, a phosphatase inhibitor). Cross linking was quenched by adding 70 mM methylammonium chloride for 10 minutes. Samples were then subjected to SDS gel electrophoresis in 4% slab gels, followed by electroblotting on to nitrocellulose membranes. The blocked membranes were incubated for two hours with affinity purified phosphotyrosine antibodies (Ek et al., J. Biol. Chem. 259: 1145-11152 (1984)), followed by three washes. Blots were then incubated for 45 minutes with peroxidase conjugated, affinity purified swine antirabbit IgG immunoglobulin. After an additional three washes, complexes were visualized using the ECL developing system.
# EGF receptor [2] = target: T2, EGF receptor (Homo sapiens, UniProt P00533); experiment: EGF induced receptor dimerization and autophosphorylation in intact cells; format: cell-based; conditions: EGF 300 ng/ml, intact fibroblasts
# T2 construct: cultures of human foreskin fibroblast cell line AG1518; endogenous in cells; host or cells: human foreskin fibroblasts (AG1518)
# Protocol: as §3
# PDGF-α receptor = target: T3, PDGF-α receptor (Homo sapiens, UniProt P16234); experiment: Competition with 125I-PDGF-AA for binding to AG1518 fibroblasts; conditions: for Receptor competing activity, PDGF-AA binding (in words): AG1518 cells
# T3 construct: cultures of human foreskin fibroblast cell line AG1518; endogenous in cells; host or cells: AG1518 human foreskin fibroblasts
# Protocol: as §1, §2
# EGF receptor [3] = target: T2, EGF receptor; experiment: Competition with 125I-EGF for binding to AG1518 fibroblasts
# Protocol: as §1, §2
# [4] = tested on: human foreskin fibroblasts; experiment: Ligand stimulated [3H]thymidine incorporation; format: cell-based; conditions: for Effect on ligand stimulated [3H]thymidine incorporation (in words): PDGF-AA, PDGF-BB or EGF stimulation; for [3H]thymidine incorporation, Control / [3H]thymidine incorporation, EGF / [3H]thymidine incorporation, PDGF-AA / [3H]thymidine incorporation, PDGF-BB: peptide present; for [3H]thymidine incorporation, Control: no ligand; for [3H]thymidine incorporation, Control / [3H]thymidine incorporation, EGF / [3H]thymidine incorporation, PDGF-AA / [3H]thymidine incorporation, PDGF-BB / [3H]thymidine incorporation, ligand alone: mean of duplicates; for [3H]thymidine incorporation, EGF: stimulated with EGF; for [3H]thymidine incorporation, PDGF-AA: stimulated with PDGF-AA; for [3H]thymidine incorporation, PDGF-BB: stimulated with PDGF-BB; for [3H]thymidine incorporation, ligand alone: no peptide (unstimulated control 483 cpm)
# Excerpt: The possible role of peptide 16T as an antagonist for PDGF activity in vivo was investigated. Following the methodology of Betsholtz et al., J. Cell Physiol 118: 203-210 (1984), the disclosure of which is incorporated by reference, [^3 H] thymidine incorporation by human fibroblasts in the presence of various peptides was studied.
# PDGF-β receptor [5] = target: T4, PDGF-β receptor (Sus scrofa, UniProt A0A8W4FFG6); experiment: Autophosphorylation and dimerization of partially purified PDGF-β receptor; format: biochemical, porcine
# T4 construct: from Triton X-100 solubilized porcine uterus membranes and purified up to the Mono-Q chromatography step; from tissue; host or cells: porcine uterus membranes
# Protocol: A preparation of PDGF-β receptor, from Triton X-100 solubilized porcine uterus membranes and purified up to the Mono-Q chromatography step of Ronnstrand et al., J. Biol. Chem. 262: 2929-2932 (1987), was made, and the autophosphorylation assay described therein was carried out.
# Approximately 100 ng of the receptor was incubated for 5 minutes at 0° C. with peptide 16T or peptide 20, at different concentrations. […] Four ul of 150 μM [^32 P]ATP (containing 5×10^6 cpm of radioactivity) was added, followed by an additional 10 minutes of incubation at 0° C. Incorporation of radioactivity was terminated by adding 5 μl of 15 mM unlabelled ATP and 5 μl of 40 mM phenylphosphate. Samples were cross linked by incubating with 0.5 mM DSS (12.5 mM, in dimethyl sulfoxide) for 30 minutes at room temperature. The cross linking reaction was blocked by adding 50 mM methylammonium chloride, 20 mM Hepes, pH 7.4.
# [6] = AG1518 cells, 0° C., asterisk = homogeneous peptide, otherwise crude
# [7] = AG1518 cells, competing activity
# [8] = read-out: Inhibitory Activity: ability to compete with PDGF-BB for binding (peptide needed to decrease binding by 50%), AG1518 cells, 0° C., asterisk = homogeneous peptide, otherwise crude
# T1 sequence (P09619 33-1106): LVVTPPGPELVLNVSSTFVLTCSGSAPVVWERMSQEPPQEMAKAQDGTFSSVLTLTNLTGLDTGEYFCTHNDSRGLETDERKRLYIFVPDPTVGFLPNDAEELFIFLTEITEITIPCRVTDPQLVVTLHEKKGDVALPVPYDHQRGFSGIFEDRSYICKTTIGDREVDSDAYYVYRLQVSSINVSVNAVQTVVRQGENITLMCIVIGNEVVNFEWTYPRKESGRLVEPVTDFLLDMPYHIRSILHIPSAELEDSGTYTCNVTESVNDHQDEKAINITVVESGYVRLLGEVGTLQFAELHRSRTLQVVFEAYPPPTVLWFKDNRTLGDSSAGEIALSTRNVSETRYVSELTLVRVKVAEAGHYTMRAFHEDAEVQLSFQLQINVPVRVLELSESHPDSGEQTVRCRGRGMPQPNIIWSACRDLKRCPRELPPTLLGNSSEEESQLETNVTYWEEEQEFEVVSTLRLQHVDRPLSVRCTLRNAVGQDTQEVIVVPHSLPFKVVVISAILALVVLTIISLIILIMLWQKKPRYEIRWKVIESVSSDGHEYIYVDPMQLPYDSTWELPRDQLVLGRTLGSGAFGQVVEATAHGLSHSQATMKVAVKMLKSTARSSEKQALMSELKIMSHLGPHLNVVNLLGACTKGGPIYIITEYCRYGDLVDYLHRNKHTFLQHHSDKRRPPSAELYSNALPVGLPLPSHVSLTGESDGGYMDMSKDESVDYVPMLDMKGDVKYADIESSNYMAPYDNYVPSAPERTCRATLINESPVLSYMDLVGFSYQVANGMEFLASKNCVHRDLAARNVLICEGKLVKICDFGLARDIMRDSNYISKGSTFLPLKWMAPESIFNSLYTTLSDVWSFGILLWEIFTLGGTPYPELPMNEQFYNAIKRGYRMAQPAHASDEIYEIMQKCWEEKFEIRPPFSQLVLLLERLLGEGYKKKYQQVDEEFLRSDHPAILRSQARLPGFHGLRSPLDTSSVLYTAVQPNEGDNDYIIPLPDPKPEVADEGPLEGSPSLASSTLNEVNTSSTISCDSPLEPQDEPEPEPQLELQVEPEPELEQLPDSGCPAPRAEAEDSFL
# T2 sequence (P00533 25-1210): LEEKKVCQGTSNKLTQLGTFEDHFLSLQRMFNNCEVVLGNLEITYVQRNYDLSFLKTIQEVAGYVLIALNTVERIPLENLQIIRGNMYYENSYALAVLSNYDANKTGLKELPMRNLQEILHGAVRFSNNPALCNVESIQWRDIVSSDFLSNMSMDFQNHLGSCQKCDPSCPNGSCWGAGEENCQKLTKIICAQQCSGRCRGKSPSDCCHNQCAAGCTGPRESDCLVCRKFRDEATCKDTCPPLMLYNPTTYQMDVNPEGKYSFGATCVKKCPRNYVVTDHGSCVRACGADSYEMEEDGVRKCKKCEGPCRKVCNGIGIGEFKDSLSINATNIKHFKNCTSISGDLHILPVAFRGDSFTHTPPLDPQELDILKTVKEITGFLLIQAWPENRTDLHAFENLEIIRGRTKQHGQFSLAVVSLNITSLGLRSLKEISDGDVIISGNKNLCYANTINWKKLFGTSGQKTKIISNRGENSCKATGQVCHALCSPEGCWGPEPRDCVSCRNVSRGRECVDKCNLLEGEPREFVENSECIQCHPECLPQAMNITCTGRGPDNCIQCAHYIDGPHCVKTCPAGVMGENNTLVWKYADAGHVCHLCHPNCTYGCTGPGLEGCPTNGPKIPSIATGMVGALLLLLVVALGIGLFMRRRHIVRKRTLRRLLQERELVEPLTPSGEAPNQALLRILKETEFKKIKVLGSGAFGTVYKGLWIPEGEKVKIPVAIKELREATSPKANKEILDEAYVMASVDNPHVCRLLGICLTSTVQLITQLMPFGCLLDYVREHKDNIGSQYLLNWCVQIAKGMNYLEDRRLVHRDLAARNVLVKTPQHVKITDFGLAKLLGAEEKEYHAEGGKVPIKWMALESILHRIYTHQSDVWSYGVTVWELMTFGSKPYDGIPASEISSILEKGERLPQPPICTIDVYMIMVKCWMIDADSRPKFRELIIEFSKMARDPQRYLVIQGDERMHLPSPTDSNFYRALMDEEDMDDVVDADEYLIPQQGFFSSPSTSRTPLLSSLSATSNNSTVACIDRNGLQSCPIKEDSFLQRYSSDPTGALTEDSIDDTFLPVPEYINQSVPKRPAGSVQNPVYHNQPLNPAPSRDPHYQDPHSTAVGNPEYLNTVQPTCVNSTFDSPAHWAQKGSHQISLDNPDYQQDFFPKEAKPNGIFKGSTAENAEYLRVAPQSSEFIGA
# T3 sequence (P16234 24-1089): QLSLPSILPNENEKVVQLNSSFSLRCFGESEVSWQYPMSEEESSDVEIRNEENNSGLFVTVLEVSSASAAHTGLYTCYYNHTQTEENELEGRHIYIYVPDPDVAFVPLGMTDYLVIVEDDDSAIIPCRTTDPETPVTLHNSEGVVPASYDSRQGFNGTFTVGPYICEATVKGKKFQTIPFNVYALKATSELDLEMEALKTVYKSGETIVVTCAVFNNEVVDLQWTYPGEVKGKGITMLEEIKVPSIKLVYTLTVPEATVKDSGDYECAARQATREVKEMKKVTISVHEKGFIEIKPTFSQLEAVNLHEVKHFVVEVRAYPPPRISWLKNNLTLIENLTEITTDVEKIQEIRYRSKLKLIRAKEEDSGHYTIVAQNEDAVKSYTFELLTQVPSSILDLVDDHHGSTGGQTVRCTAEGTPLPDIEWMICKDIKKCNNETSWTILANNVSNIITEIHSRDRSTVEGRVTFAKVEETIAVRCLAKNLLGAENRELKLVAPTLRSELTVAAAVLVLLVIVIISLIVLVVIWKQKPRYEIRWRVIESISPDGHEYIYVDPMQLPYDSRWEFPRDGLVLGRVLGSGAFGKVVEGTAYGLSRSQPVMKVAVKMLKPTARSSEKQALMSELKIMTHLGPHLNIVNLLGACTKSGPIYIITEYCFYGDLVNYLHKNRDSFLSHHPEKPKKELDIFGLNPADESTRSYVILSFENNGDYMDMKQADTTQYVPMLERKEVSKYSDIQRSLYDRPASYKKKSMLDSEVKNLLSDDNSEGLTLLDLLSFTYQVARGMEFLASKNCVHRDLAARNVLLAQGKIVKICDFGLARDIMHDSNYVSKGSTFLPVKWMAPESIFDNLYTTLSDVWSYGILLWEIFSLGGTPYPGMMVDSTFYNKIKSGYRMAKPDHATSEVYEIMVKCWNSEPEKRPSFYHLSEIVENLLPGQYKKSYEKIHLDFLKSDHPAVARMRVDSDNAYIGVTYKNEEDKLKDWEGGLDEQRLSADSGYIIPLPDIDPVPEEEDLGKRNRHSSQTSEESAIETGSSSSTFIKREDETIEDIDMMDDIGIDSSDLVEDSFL
# T4 sequence (A0A8W4FFG6 32-1102): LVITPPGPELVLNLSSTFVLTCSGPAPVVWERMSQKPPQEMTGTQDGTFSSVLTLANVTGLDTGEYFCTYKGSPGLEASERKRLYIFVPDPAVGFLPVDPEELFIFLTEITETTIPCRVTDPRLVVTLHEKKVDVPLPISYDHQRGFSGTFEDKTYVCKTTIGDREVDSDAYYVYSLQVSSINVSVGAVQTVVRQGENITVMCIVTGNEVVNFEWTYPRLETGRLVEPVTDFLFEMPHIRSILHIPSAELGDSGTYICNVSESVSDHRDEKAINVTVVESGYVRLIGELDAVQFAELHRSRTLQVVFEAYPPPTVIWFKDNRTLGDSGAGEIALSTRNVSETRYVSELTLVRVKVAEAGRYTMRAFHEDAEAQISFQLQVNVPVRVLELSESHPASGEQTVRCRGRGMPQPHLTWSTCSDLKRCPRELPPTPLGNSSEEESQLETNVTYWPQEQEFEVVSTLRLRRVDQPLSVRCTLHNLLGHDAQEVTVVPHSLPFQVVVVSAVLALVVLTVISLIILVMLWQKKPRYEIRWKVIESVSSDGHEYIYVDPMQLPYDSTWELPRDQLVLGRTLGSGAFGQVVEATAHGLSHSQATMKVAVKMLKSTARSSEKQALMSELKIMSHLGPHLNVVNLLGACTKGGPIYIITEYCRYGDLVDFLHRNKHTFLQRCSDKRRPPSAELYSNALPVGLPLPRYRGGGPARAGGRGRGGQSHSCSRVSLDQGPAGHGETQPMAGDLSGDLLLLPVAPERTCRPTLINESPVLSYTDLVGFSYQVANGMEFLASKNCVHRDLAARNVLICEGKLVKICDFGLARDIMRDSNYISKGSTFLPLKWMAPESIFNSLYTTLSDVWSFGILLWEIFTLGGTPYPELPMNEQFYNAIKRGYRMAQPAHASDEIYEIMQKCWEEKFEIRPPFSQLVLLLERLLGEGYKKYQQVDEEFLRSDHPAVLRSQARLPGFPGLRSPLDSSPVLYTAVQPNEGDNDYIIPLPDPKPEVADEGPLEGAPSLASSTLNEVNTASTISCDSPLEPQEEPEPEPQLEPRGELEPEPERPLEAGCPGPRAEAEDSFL
molecule,measurement,setting,value
CC[C@H](C)[C@H](NC(=O)[C@H](CCC(=O)O)NC(=O)[C@H](Cc1c(Sc2ccccc2[N+](=O)[O-])[nH]c2ccccc12)NC(=O)[C@@H](NC(=O)[C@H](CC(C)C)NC(=O)[C@H](Cc1ccccc1)NC(=O)[C@H](CC(N)=O)NC(=O)[C@H](C)N)C(C)C)C(=O)N[C@H](C(=O)N[C@@H](CCCNC(=N)N)C(=O)N[C@@H](CCCCN)C(=O)N[C@@H](CCCCN)C(=O)N1CCC[C@H]1C(=O)O)C(C)C [*16NPS] (H-ANFLV[X2]EIVRKKP-OH; N-terminus and C-terminus assumed),IC50,PDGF-β receptor [1]; [6],< 30 µM
same,"Receptor competing activity, PDGF-BB binding (in words)","PDGF-β receptor [1]; AG1518 cells, general text statements on competing activity placed here, listed as 16 NPS",more active as an antagonist than peptide 16
same,"Receptor competing activity, PDGF-BB binding (in words)","PDGF-β receptor [1]; AG1518 cells, general text statements on competing activity placed here, listed as 16NPS",increased activity as an antagonist
"CC[C@H](C)[C@H](NC(=O)[C@H](Cc1ccccc1)NC(=O)[C@H](C)NC(=O)[C@@H](N)CCC(=O)O)C(=O)N[C@@H](CCCCN)C(=O)N[C@@H](Cc1c(-c2ccc(SC)cc2)[nH]c2ccccc12)C(=O)N[C@@H](CC(C)C)C(=O)N[C@H](C(=O)N[C@@H](CCCNC(=N)N)C(=O)N[C@@H](CC(N)=O)C(=O)N[C@@H](CCCCN)C(=O)N[C@H](C(=O)N1CCC[C@H]1C(=O)O)C(C)C)C(C)C [*20T, reference compound]","Receptor competing activity, PDGF-BB binding (in words)",PDGF-β receptor [1]; [7],did not compete for binding
same,Effect on PDGF induced autophosphorylation and dimerization (in words),PDGF receptors,no effect whatsoever
same,Effect on EGF induced autophosphorylation and dimerization (in words),EGF receptor [2],no effect whatsoever
same,"Receptor competing activity, PDGF-AA binding (in words)",PDGF-α receptor,did not compete for binding
same,Competition for binding of 125I-EGF to the EGF receptor (in words),EGF receptor [3],"none of peptides 16, 16T, 20 and 20T compete"
same,Effect on ligand stimulated [3H]thymidine incorporation (in words),[4],some non specific inhibition activity
same,"[3H]thymidine incorporation, Control",[4],456 cpm
same,"[3H]thymidine incorporation, EGF",[4],515 cpm
same,"[3H]thymidine incorporation, PDGF-AA",[4],489 cpm
same,"[3H]thymidine incorporation, PDGF-BB",[4],836 cpm
ANFLVWEIVRKKP [Peptide 16],Amount of peptide giving complete inhibition of dimerization and autophosphorylation,"PDGF-β receptor [5]; nearly complete for 16T, complete for 16, about 100 ng receptor, 100 ng PDGF-BB, 40 ul",20 µg
same,Effect on dimerization and autophosphorylation (in words),PDGF-β receptor [5]; peptide 20: concentrations up to 20 μg,intermediate effect
same,IC50,PDGF-β receptor [1]; [6],< 30 µM
same,"Receptor competing activity, PDGF-BB binding (in words)",PDGF-β receptor [1]; [7],maintained most of the receptor competing activity; also recorded: marginal effect
same,"Receptor competing activity, PDGF-AA binding (in words)",PDGF-α receptor,marginal effect
same,"Receptor competing activity, PDGF-AA binding (in words)",PDGF-α receptor; listed as 16*,very low activity
same,Competition for binding of 125I-EGF to the EGF receptor (in words),EGF receptor [3],"none of peptides 16, 16T, 20 and 20T compete"
same,Effect on ligand stimulated [3H]thymidine incorporation (in words),[4],"did inhibit PDGF-AA and PDGF-BB induced mitogenicity, but also EGF induced mitogenicity"
same,"[3H]thymidine incorporation, Control",[4],241 cpm
same,"[3H]thymidine incorporation, EGF",[4],216 cpm
same,"[3H]thymidine incorporation, PDGF-AA",[4],242 cpm
same,"[3H]thymidine incorporation, PDGF-BB",[4],281 cpm
ANFLVWPPCVEVQLRPVQVRKIEIVRKKP [Peptide 7],IC50,PDGF-β receptor [1]; [8],< 30 µM
same,IC50,"PDGF-β receptor [1]; β receptor, read-out: 50% competition for receptor binding",~6 µM
same,IC50,"PDGF-α receptor; α receptor, read-out: 50% competition for receptor binding",~6 µM
CRPTQVQLRPVQVRKIEIVRKKP [Peptide 2],IC50,PDGF-β receptor [1]; [8],> 150 µM
"EAFIKWLVRNKVP [*20, reference compound]",IC50,PDGF-β receptor [1]; [6],> 150 µM
"EGF: ligand of the EGF receptor, used as control growth factor","[3H]thymidine incorporation, ligand alone",[4],2591 cpm
KIEIVRKKPIFKKATVTLEDHLASKC [Peptide 1],IC50,PDGF-β receptor [1]; [8],> 150 µM
PDGF-AA: platelet derived growth factor A chain homodimer,"[3H]thymidine incorporation, ligand alone",[4],677 cpm
same,Stimulation of [3H]thymidine incorporation by ligand,"[4]; no peptide, versus unstimulated control",lower stimulation
WPPCVEVQLRPVQVRKIEIVRKKP [Peptide 8],"Receptor competing activity, PDGF-BB binding (in words)",PDGF-β receptor [1]; [7],nearly devoid of activity
same,IC50,PDGF-β receptor [1]; [8],> 150 µM

# — US5444151A, “Platelet derived growth factor antagonists” (Ludwig Institute for Cancer Research, priority 1992, dated 1995)
